Like-named read-outs stand apart in the source and are kept apart here.
Tested on: Angiotensin II (AII) vasopressor response
Test: AII Challenge: antagonism of angiotensin II vasopressor response in conscious spontaneously hypertensive rats
Format: in vivo, rat (male okamoto-Aoki SHR)
Settings: for inhibition in vivo at 3 mg/kg: Rattus norvegicus, read-out: Inhibition; for Change: single SHR
Method in brief: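 Read-out is the systolic pressure increase (mmHg) to i.v. angiotensin II, 0.05 and 0.1 ug/kg, compared pre- and post-dose in restrained, conscious spontaneously hypertensive male rats. Compounds administered orally, i.p. or i.v.; arterial cannula inserted under local anaesthesia.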

[1] = iv, 0.5 h, SHR n=2, 3 mg/kg I.V., AII 0.05 mcg/kg IV, 30 min post dose
[2] = iv, 0.5 h, SHR n=2, 3 mg/kg I.V., AII 0.1 mcg/kg IV, 30 min post dose
[3] = iv, 1 h, SHR n=2, 3 mg/kg I.V., AII 0.05 mcg/kg IV, 60 min post dose
[4] = iv, 1 h, SHR n=2, 3 mg/kg I.V., AII 0.1 mcg/kg IV, 60 min post dose
[5] = iv, 2 h, SHR n=2, 3 mg/kg I.V., AII 0.05 mcg/kg IV, 120 min post dose
[6] = iv, 2 h, SHR n=2, 3 mg/kg I.V., AII 0.1 mcg/kg IV, 120 min post dose
[7] = iv, 3 h, SHR n=2, 3 mg/kg I.V., AII 0.1 mcg/kg IV, 180 min post dose
[8] = iv, 4 h, SHR n=2, 3 mg/kg I.V., AII 0.05 mcg/kg IV, 240 min post dose
[9] = iv, 5 h, SHR n=2, 3 mg/kg I.V., AII 0.05 mcg/kg IV, 300 min post dose
[10] = iv, 5 h, SHR n=2, 3 mg/kg I.V., AII 0.1 mcg/kg IV, 300 min post dose
[11] = iv, […], SHR n=2, 3 mg/kg I.V., AII 0.05 mcg/kg IV, 90 min post dose
[12] = iv, […], SHR n=2, 3 mg/kg I.V., AII 0.1 mcg/kg IV, 90 min post dose
[13] = po, 0.5 h, SHR n=2, 3 mg/kg P.O., AII 0.05 mcg/kg IV, 30 min post dose
[14] = po, 0.5 h, SHR n=2, 3 mg/kg P.O., AII 0.1 mcg/kg IV, 30 min post dose
[15] = po, 1 h, SHR n=2, 3 mg/kg P.O., AII 0.05 mcg/kg IV, 60 min post dose
[16] = po, 1 h, SHR n=2, 3 mg/kg P.O., AII 0.1 mcg/kg IV, 60 min post dose
[17] = po, 2 h, SHR n=2, 3 mg/kg P.O., AII 0.05 mcg/kg IV, 120 min post dose
[18] = po, 2 h, SHR n=2, 3 mg/kg P.O., AII 0.1 mcg/kg IV, 120 min post dose
[19] = po, 3 h, SHR n=2, 3 mg/kg P.O., AII 0.05 mcg/kg IV, 180 min post dose
[20] = po, 3 h, SHR n=2, 3 mg/kg P.O., AII 0.1 mcg/kg IV, 180 min post dose
[21] = po, […], SHR n=2, 3 mg/kg P.O., AII 0.05 mcg/kg IV, 90 min post dose
[22] = po, […], SHR n=2, 3 mg/kg P.O., AII 0.1 mcg/kg IV, 90 min post dose
[23] = SHR n=2, 3 mg/kg I.V., AII 0.05 mcg/kg IV, 30 min post dose
[24] = SHR n=2, 3 mg/kg I.V., AII 0.05 mcg/kg IV, 60 min post dose
[25] = SHR n=2, 3 mg/kg I.V., AII 0.05 mcg/kg IV, 90 min post dose
[26] = SHR n=2, 3 mg/kg I.V., AII 0.05 mcg/kg IV, 120 min post dose
[27] = SHR n=2, 3 mg/kg I.V., AII 0.05 mcg/kg IV, 180 min post dose
[28] = SHR n=2, 3 mg/kg I.V., AII 0.05 mcg/kg IV, 240 min post dose
[29] = SHR n=2, 3 mg/kg I.V., AII 0.05 mcg/kg IV, 300 min post dose
[30] = SHR n=2, 3 mg/kg I.V., AII 0.1 mcg/kg IV, 30 min post dose
[31] = SHR n=2, 3 mg/kg I.V., AII 0.1 mcg/kg IV, 60 min post dose
[32] = SHR n=2, 3 mg/kg I.V., AII 0.1 mcg/kg IV, 90 min post dose
[33] = SHR n=2, 3 mg/kg I.V., AII 0.1 mcg/kg IV, 120 min post dose
[34] = SHR n=2, 3 mg/kg I.V., AII 0.1 mcg/kg IV, 180 min post dose
[35] = SHR n=2, 3 mg/kg I.V., AII 0.1 mcg/kg IV, 240 min post dose
[36] = SHR n=2, 3 mg/kg I.V., AII 0.1 mcg/kg IV, 300 min post dose
[37] = SHR n=2, 3 mg/kg P.O., AII 0.05 mcg/kg IV, 30 min post dose
[38] = SHR n=2, 3 mg/kg P.O., AII 0.05 mcg/kg IV, 60 min post dose
[39] = SHR n=2, 3 mg/kg P.O., AII 0.05 mcg/kg IV, 90 min post dose
[40] = SHR n=2, 3 mg/kg P.O., AII 0.05 mcg/kg IV, 120 min post dose
[41] = SHR n=2, 3 mg/kg P.O., AII 0.05 mcg/kg IV, 180 min post dose
[42] = SHR n=2, 3 mg/kg P.O., AII 0.1 mcg/kg IV, 30 min post dose
[43] = SHR n=2, 3 mg/kg P.O., AII 0.1 mcg/kg IV, 60 min post dose
[44] = SHR n=2, 3 mg/kg P.O., AII 0.1 mcg/kg IV, 90 min post dose
[45] = SHR n=2, 3 mg/kg P.O., AII 0.1 mcg/kg IV, 120 min post dose
[46] = SHR n=2, 3 mg/kg P.O., AII 0.1 mcg/kg IV, 180 min post dose
[47] = 3 mg/kg I.V., AII 0.05 mcg/kg IV, 60 min post dose
[48] = 3 mg/kg I.V., AII 0.05 mcg/kg IV, 90 min post dose
[49] = 3 mg/kg I.V., AII 0.1 mcg/kg IV, 90 min post dose

`CCCCc1nc2ccc([C@H]3[C@@H]4C(=O)CC[C@@H]4ON3Cc3ccccc3)cc2c(=O)n1Cc1ccc(-c2ccccc2-c2nnn[nH]2)cc1` (relative stereo) [Example 55] showed an inhibition in vivo at 3 mg/kg [1] of 97%, an inhibition in vivo at 3 mg/kg [2] of 95% and an inhibition in vivo at 3 mg/kg [3] of 100%. For the same compound, the inhibition in vivo at 3 mg/kg [4] was 95%, the inhibition in vivo at 3 mg/kg [5] was 97% and the inhibition in vivo at 3 mg/kg [6] was 94%. It also gave an inhibition in vivo at 3 mg/kg [7] of 77%, an inhibition in vivo at 3 mg/kg [8] of 89% and an inhibition in vivo at 3 mg/kg (iv, 4 h) of 82%. It also gave an inhibition in vivo at 3 mg/kg [9] of 61%, an inhibition in vivo at 3 mg/kg [10] of 50% and an inhibition in vivo at 3 mg/kg [11] of 89%. It also gave an inhibition in vivo at 3 mg/kg [12] of 91%, an inhibition in vivo at 3 mg/kg [13] of 21% and an inhibition in vivo at 3 mg/kg [14] of 17%. For the same compound, the inhibition in vivo at 3 mg/kg [15] was 7%, the inhibition in vivo at 3 mg/kg [16] was 11% and the inhibition in vivo at 3 mg/kg [17] was 21%. It also gave an inhibition in vivo at 3 mg/kg [18] of 39%, an inhibition in vivo at 3 mg/kg [19] of 14% and an inhibition in vivo at 3 mg/kg [20] of 28%. For the same compound, the inhibition in vivo at 3 mg/kg [21] was 14%, the inhibition in vivo at 3 mg/kg [22] was 17% and the “Average Change” value [23] was 1.5 mmHg. For the same compound, the “Average Change” value [24] was 0 mmHg, the “Average Change” value [25] was 5 mmHg and the “Average Change” value [26] was 1.5 mmHg. For the same compound, the “Average Change” value [27] was 2.5 mmHg, the “Average Change” value [28] was 5 mmHg and the “Average Change” value [29] was 17.5 mmHg. The “Average Change” value [30] was 2.5 mmHg, the “Average Change” value [31] was 2.5 mmHg and the “Average Change” value [32] was 5 mmHg. For the same compound, the “Average Change” value [33] was 3.5 mmHg, the “Average Change” value [34] was 12.5 mmHg and the “Average Change” value [35] was 10 mmHg. For the same compound, the “Average Change” value [36] was 27.5 mmHg, the “Average Change” value [37] was 27.5 mmHg and the “Average Change” value [38] was 32.5 mmHg. The “Average Change” value [39] was 30 mmHg, the “Average Change” value [40] was 27.5 mmHg and the “Average Change” value [41] was 30 mmHg. The “Average Change” value [42] was 37.5 mmHg, the “Average Change” value [43] was 40 mmHg and the “Average Change” value [44] was 37.5 mmHg. For the same compound, the “Average Change” value [45] was 27.5 mmHg, the “Average Change” value [46] was 32.5 mmHg and the Change [47] was 0 mmHg. It also gave a Change [48] of 5 mmHg, a Change (3 mg/kg I.V., AII 0.05 mcg/kg IV, 240 min post dose) of 5 mmHg and a Change [49] of 5 mmHg. The Change (3 mg/kg I.V., AII 0.1 mcg/kg IV, 240 min post dose) was 10 mmHg and the Change (3 mg/kg P.O., AII 0.1 mcg/kg IV, 60 min post dose) was 40 mmHg.
`CCCCc1nc2ccc([C@@H]3[C@@H]4C(=O)OC[C@@H]4ON3Cc3ccccc3)cc2c(=O)n1Cc1ccc(-c2ccccc2-c2nnn[nH]2)cc1` (relative stereo) [Example 56] was tested, and the inhibition in vivo at 3 mg/kg [1] was 100%, the inhibition in vivo at 3 mg/kg [2] was 100% and the inhibition in vivo at 3 mg/kg [3] was 100%. It also gave an inhibition in vivo at 3 mg/kg [4] of 89%, an inhibition in vivo at 3 mg/kg [5] of 77% and an inhibition in vivo at 3 mg/kg [6] of 78%. The inhibition in vivo at 3 mg/kg (iv, 3 h, SHR n=2, 3 mg/kg I.V., AII 0.05 mcg/kg IV, 180 min post dose) was 77%, the inhibition in vivo at 3 mg/kg [7] was 76% and the inhibition in vivo at 3 mg/kg [8] was 72%. The inhibition in vivo at 3 mg/kg (iv, 4 h, SHR n=2, 3 mg/kg I.V., AII 0.1 mcg/kg IV, 240 min post dose) was 56%, the inhibition in vivo at 3 mg/kg [9] was 65% and the inhibition in vivo at 3 mg/kg [10] was 67%. For the same compound, the inhibition in vivo at 3 mg/kg [11] was 100%, the inhibition in vivo at 3 mg/kg [12] was 89% and the inhibition in vivo at 3 mg/kg [13] was 31%. The inhibition in vivo at 3 mg/kg [14] was 11%, the inhibition in vivo at 3 mg/kg [15] was 18% and the inhibition in vivo at 3 mg/kg [16] was 19%. For the same compound, the inhibition in vivo at 3 mg/kg [17] was 36%, the inhibition in vivo at 3 mg/kg [18] was 27% and the inhibition in vivo at 3 mg/kg [19] was -9%. For the same compound, the inhibition in vivo at 3 mg/kg [20] was 3%, the inhibition in vivo at 3 mg/kg [21] was 36% and the inhibition in vivo at 3 mg/kg [22] was 19%. For the same compound, the “Average Change” value [23] was 0 mmHg, the “Average Change” value [24] was 0 mmHg and the “Average Change” value [25] was 0 mmHg. For the same compound, the “Average Change” value [26] was 7.5 mmHg, the “Average Change” value [27] was 7.5 mmHg and the “Average Change” value [28] was 9 mmHg. The “Average Change” value [29] was 11.5 mmHg, the “Average Change” value [30] was 0 mmHg and the “Average Change” value [31] was 5 mmHg. For the same compound, the “Average Change” value [32] was 5 mmHg, the “Average Change” value [33] was 10 mmHg and the “Average Change” value [34] was 11 mmHg. The “Average Change” value [35] was 20 mmHg, the “Average Change” value [36] was 15 mmHg and the “Average Change” value [37] was 19 mmHg. For the same compound, the “Average Change” value [38] was 22.5 mmHg, the “Average Change” value [39] was 17.5 mmHg and the “Average Change” value [40] was 17.5 mmHg. The “Average Change” value [41] was 30 mmHg, the “Average Change” value [42] was 27.5 mmHg and the “Average Change” value [43] was 25 mmHg. For the same compound, the “Average Change” value [44] was 25 mmHg, the “Average Change” value [45] was 22.5 mmHg and the “Average Change” value [46] was 30 mmHg. The Change (3 mg/kg I.V., AII 0.05 mcg/kg IV, 30 min post dose) was 0 mmHg, the Change [47] was 0 mmHg and the Change [48] was 0 mmHg. It also gave a Change (3 mg/kg I.V., AII 0.1 mcg/kg IV, 30 min post dose) of 0 mmHg, a Change (3 mg/kg I.V., AII 0.1 mcg/kg IV, 60 min post dose) of 5 mmHg and a Change [49] of 5 mmHg. It also gave a Change (3 mg/kg I.V., AII 0.1 mcg/kg IV, 120 min post dose) of 10 mmHg and a Change (3 mg/kg P.O., AII 0.1 mcg/kg IV, 180 min post dose) of 30 mmHg.

— patent publication US5294611A, “Angiotensin II receptor blocking 2,3,6 substituted quinazolinones” (American Cyanamid Company, priority 1993, dated 1994)
